Target: RhoA (Homo sapiens, UniProt P61586)
Assay: SPR (Biacore T200, RhoA immobilized on CM5 chip, […] Langmuir fit)
Type: binding

RhoA, sequence (P61586 1-190): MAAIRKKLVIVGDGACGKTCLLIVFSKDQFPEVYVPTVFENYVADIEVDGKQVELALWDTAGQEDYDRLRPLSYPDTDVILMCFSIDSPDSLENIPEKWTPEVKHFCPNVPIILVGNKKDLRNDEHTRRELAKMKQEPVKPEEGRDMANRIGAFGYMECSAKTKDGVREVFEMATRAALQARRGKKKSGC

In the case of `O=C(/C=C/CCc1ccc(O)c(O)c1)CCCCc1ccc(O)c(O)c1` [compound 5, (E)-1,9-bis(3,4-dihydroxyphenyl)non-3-en-5-one], the Kd is reported as 1590 nM.

Reference: PMC12311952, “Mechanism of SC targeting RhoA regulation and its potential value in gastric cancer therapy” (Biochemistry and Biophysics Reports, 2025)
